Data published in paper PMC5218480 (PLoS ONE, 2017).

Test system: MV-4-11 cells
Test: Gene expression microarray analysis (Affymetrix PrimeView) and GSEA
Type: cell-based, human
Parameters: RFU PODN (11730768_x_at) / Fold change /veh PODN (11730768_x_at) / RFU LINC00158 (11744669_a_at) / Fold change /veh LINC00158 (11744669_a_at) / RFU DUSP10 (11751237_a_at) / Fold change /veh DUSP10 (11751237_a_at) / RFU ID3 (11757404_x_at) / Fold change /veh ID3 (11757404_x_at) / RFU PLEKHG5 (11737974_s_at) / Fold change /veh PLEKHG5 (11737974_s_at) / RFU LRRC4B (11730491_at) / Fold change /veh LRRC4B (11730491_at) / RFU GIMAP4 (11747438_a_at) / Fold change /veh GIMAP4 (11747438_a_at) / RFU KRT8 (11758183_x_at) / Fold change /veh KRT8 (11758183_x_at) / RFU CNN1 (11734310_a_at) / Fold change /veh CNN1 (11734310_a_at) / RFU VPS37D (11726825_at) / Fold change /veh VPS37D (11726825_at) / RFU C10orf10 (11716522_x_at) / Fold change /veh C10orf10 (11716522_x_at) / RFU KIR2DL2 /// KIR2DL4 /// KIR2DL5A /// KIR2DL5B /// KIR2DS1 /// KIR2DS2 /// KIR2DS3 /// KIR2DS4 /// KIR3DL3 /// KIR3DL3 /// KIR3DS1 (11738374_at) / Fold change /veh KIR2DL2 /// KIR2DL4 /// KIR2DL5A /// KIR2DL5B /// KIR2DS1 /// KIR2DS2 /// KIR2DS3 /// KIR2DS4 /// KIR3DL3 /// KIR3DL3 /// KIR3DS1 (11738374_at) / RFU C1QL1 (11718748_at) / Fold change /veh C1QL1 (11718748_at) / RFU TMPRSS4 (11747572_a_at) / Fold change /veh TMPRSS4 (11747572_a_at) / RFU HAMP (11756126_x_at) / Fold change /veh HAMP (11756126_x_at) / RFU RNFT2 (11725882_a_at) / Fold change /veh RNFT2 (11725882_a_at) / RFU NR4A2 (11747474_a_at) / Fold change /veh NR4A2 (11747474_a_at) / RFU ABCC12 (11746883_a_at) / Fold change /veh ABCC12 (11746883_a_at) / RFU TMEM136 (11760407_x_at) / Fold change /veh TMEM136 (11760407_x_at) / RFU CLDN22 /// WWC2 (11732394_at) / Fold change /veh CLDN22 /// WWC2 (11732394_at) / RFU HLA-DPB1 (11760878_x_at) / Fold change /veh HLA-DPB1 (11760878_x_at) / RFU SPINT1 (11716480_a_at) / Fold change /veh SPINT1 (11716480_a_at) / RFU GAP43 (11754022_s_at) / Fold change /veh GAP43 (11754022_s_at) / RFU A4GNT (11735810_at) / Fold change /veh A4GNT (11735810_at) / RFU PRB3 (11715151_x_at) / Fold change /veh PRB3 (11715151_x_at) / RFU TUBB4B (11761932_at) / Fold change /veh TUBB4B (11761932_at) / RFU CAPN14 (11732068_a_at) / Fold change /veh CAPN14 (11732068_a_at) / RFU TMCC2 (11721928_a_at) / Fold change /veh TMCC2 (11721928_a_at) / RFU IRGQ (11745062_a_at) / Fold change /veh IRGQ (11745062_a_at) / RFU FAM174B (11720279_a_at) / Fold change /veh FAM174B (11720279_a_at) / RFU TMPRSS4 (11748680_a_at) / Fold change /veh TMPRSS4 (11748680_a_at) / RFU FAM212B (11763350_a_at) / Fold change /veh FAM212B (11763350_a_at) / RFU PLEKHG5 (11743358_a_at) / Fold change /veh PLEKHG5 (11743358_a_at) / RFU ZSCAN30 (11745921_a_at) / Fold change /veh ZSCAN30 (11745921_a_at) / RFU CMKLR1 (11741424_a_at) / Fold change /veh CMKLR1 (11741424_a_at) / RFU LOC101060620 /// MAPK8IP1 (11723275_at) / Fold change /veh LOC101060620 /// MAPK8IP1 (11723275_at) / RFU SPTSSB (11747773_x_at) / Fold change /veh SPTSSB (11747773_x_at) / RFU PRSS12 (11739890_at) / Fold change /veh PRSS12 (11739890_at) / RFU BIN1 (11741810_x_at) / Fold change /veh BIN1 (11741810_x_at) / RFU WNT11 (11732464_a_at) / Fold change /veh WNT11 (11732464_a_at) / RFU C10orf10 (11716521_a_at) / Fold change /veh C10orf10 (11716521_a_at) / RFU C5orf56 (11738089_at) / Fold change /veh C5orf56 (11738089_at) / RFU CYB561 (11721691_x_at) / Fold change /veh CYB561 (11721691_x_at) / RFU ANKRD19P (11752326_a_at) / Fold change /veh ANKRD19P (11752326_a_at) / RFU OR2T12 /// OR2T33 /// OR2T8 (11738714_s_at) / Fold change /veh OR2T12 /// OR2T33 /// OR2T8 (11738714_s_at) / RFU VCAN (11748164_a_at) / Fold change /veh VCAN (11748164_a_at) / RFU JSRP1 (11732532_at) / Fold change /veh JSRP1 (11732532_at) / RFU KRTAP10-11 (11738290_x_at) / Fold change /veh KRTAP10-11 (11738290_x_at) / RFU MYO3A (11730013_a_at) / Fold change /veh MYO3A (11730013_a_at) / RFU EBF3 (11725865_a_at) / Fold change /veh EBF3 (11725865_a_at) / RFU CAMK2N1 (11719241_x_at) / Fold change /veh CAMK2N1 (11719241_x_at) / RFU C5orf56 (11738088_a_at) / Fold change /veh C5orf56 (11738088_a_at) / RFU OLFML3 (11715873_a_at) / Fold change /veh OLFML3 (11715873_a_at) / RFU LOC100653217 /// NTM (11731650_a_at) / Fold change /veh LOC100653217 /// NTM (11731650_a_at) / RFU MAPK11 (11762145_a_at) / Fold change /veh MAPK11 (11762145_a_at) / RFU FIZ1 (11724087_x_at) / Fold change /veh FIZ1 (11724087_x_at) / RFU OASL (11726364_x_at) / Fold change /veh OASL (11726364_x_at) / RFU SOX15 (11748057_x_at) / Fold change /veh SOX15 (11748057_x_at) / RFU CD79A (11719716_a_at) / Fold change /veh CD79A (11719716_a_at) / RFU HIST1H1D (11736915_at) / Fold change /veh HIST1H1D (11736915_at) / RFU CASKIN2 (11723855_a_at) / Fold change /veh CASKIN2 (11723855_a_at) / RFU LOC730098 (11760151_x_at) / Fold change /veh LOC730098 (11760151_x_at) / RFU OR4N2 (11742367_at) / Fold change /veh OR4N2 (11742367_at) / RFU PRRT2 (11749266_a_at) / Fold change /veh PRRT2 (11749266_a_at) / RFU SNX32 (11753110_a_at) / Fold change /veh SNX32 (11753110_a_at) / RFU CDHR5 (11726645_a_at) / Fold change /veh CDHR5 (11726645_a_at) / RFU RCAN1 (11760418_a_at) / Fold change /veh RCAN1 (11760418_a_at) / RFU FAM167A (11723789_a_at) / Fold change /veh FAM167A (11723789_a_at) / RFU FAM26E (11764081_at) / Fold change /veh FAM26E (11764081_at) / RFU ISYNA1 (11749810_s_at) / Fold change /veh ISYNA1 (11749810_s_at) / RFU ACY1 (11761880_at) / Fold change /veh ACY1 (11761880_at) / RFU 11764098_at / Fold change /veh 11764098_at / RFU SAMD14 (11745864_x_at) / Fold change /veh SAMD14 (11745864_x_at) / RFU NPB (11741838_a_at) / Fold change /veh NPB (11741838_a_at) / RFU TMPRSS6 (11731388_a_at) / Fold change /veh TMPRSS6 (11731388_a_at) / RFU KRTAP10-2 (11738614_at) / Fold change /veh KRTAP10-2 (11738614_at) / RFU ARHGAP8 /// PRR5-ARHGAP8 (11727945_x_at) / Fold change /veh ARHGAP8 /// PRR5-ARHGAP8 (11727945_x_at) / RFU KRTAP5-7 /// NADSYN1 (11734609_at) / Fold change /veh KRTAP5-7 /// NADSYN1 (11734609_at) / RFU RASL12 (11751679_a_at) / Fold change /veh RASL12 (11751679_a_at) / RFU CDKN2B (11736163_a_at) / Fold change /veh CDKN2B (11736163_a_at) / RFU PRF1 (11729649_at) / Fold change /veh PRF1 (11729649_at) / RFU, ZNF638 /// ZNF638-IT1 / Fold change vs veh, ZNF638 /// ZNF638-IT1 / RFU, PANK3 / Fold change vs veh, PANK3 / RFU, SH3YL1 / Fold change vs veh, SH3YL1 / RFU, ZEB2 / Fold change vs veh, ZEB2 / RFU, NRIP1 / Fold change vs veh, NRIP1 / RFU, PTTG1IP / Fold change vs veh, PTTG1IP / RFU, CAPN2 / Fold change vs veh, CAPN2 / RFU, MED14 / Fold change vs veh, MED14 / RFU, SNORA58 / Fold change vs veh, SNORA58 / RFU, C1orf63 / Fold change vs veh, C1orf63 / RFU, LRRFIP1 / Fold change vs veh, LRRFIP1 / RFU, NDUFAF7 / Fold change vs veh, NDUFAF7 / RFU, SLC12A2 / Fold change vs veh, SLC12A2 / RFU, IBTK / Fold change vs veh, IBTK / RFU, ESF1 / Fold change vs veh, ESF1 / Fold change vs veh, TMEM50B / RFU, TAOK1 / Fold change vs veh, TAOK1 / RFU, ACBD3 / Fold change vs veh, ACBD3 / RFU, TMA16 / Fold change vs veh, TMA16 / RFU, RWDD3 / Fold change vs veh, RWDD3 / RFU, BCAT1 / Fold change vs veh, BCAT1 / RFU, EDEM3 / Fold change vs veh, EDEM3 / RFU, TMEM33 / Fold change vs veh, TMEM33 / RFU, WDR75 / Fold change vs veh, WDR75 / RFU, AHCTF1 / Fold change vs veh, AHCTF1 / RFU, TFRC / Fold change vs veh, TFRC / RFU, ZDHHC17 / Fold change vs veh, ZDHHC17 / RFU, NOM1 / Fold change vs veh, NOM1 / RFU, ARL8B / Fold change vs veh, ARL8B / RFU, ZBTB11 / Fold change vs veh, ZBTB11 / RFU, TAMM41 / Fold change vs veh, TAMM41 / RFU, KIAA1704 /// LOC100996395 / Fold change vs veh, KIAA1704 /// LOC100996395 / RFU, ING1 / Fold change vs veh, ING1 / RFU, TRMT61B / Fold change vs veh, TRMT61B / RFU, FUBP3 / Fold change vs veh, FUBP3 / RFU, TP53 / Fold change vs veh, TP53 / RFU, TNKS2 / Fold change vs veh, TNKS2 / RFU, ZFP14 / Fold change vs veh, ZFP14 / RFU, ACTR2 / Fold change vs veh, ACTR2 / RFU, PPP3R1 / Fold change vs veh, PPP3R1 / RFU, PIK3R1 / Fold change vs veh, PIK3R1 / RFU, HNRNPA1 / Fold change vs veh, HNRNPA1 / RFU, RNF170 / Fold change vs veh, RNF170 / RFU, ZNF28 / Fold change vs veh, ZNF28 / RFU, RNGTT / Fold change vs veh, RNGTT / RFU, OGT / Fold change vs veh, OGT / RFU, BRD1 / Fold change vs veh, BRD1 / RFU, MARS / Fold change vs veh, MARS / RFU, ZNF655 / Fold change vs veh, ZNF655 / RFU, FAHD1 / Fold change vs veh, FAHD1 / RFU, BDP1 / Fold change vs veh, BDP1 / RFU, LRRCC1 / Fold change vs veh, LRRCC1 / RFU, ARID1A / Fold change vs veh, ARID1A / RFU, ZNF146 / Fold change vs veh, ZNF146 / RFU, ZNF330 / Fold change vs veh, ZNF330 / RFU, GPN3 / Fold change vs veh, GPN3 / RFU, C9orf123 / Fold change vs veh, C9orf123 / RFU, N4BP2L2 / Fold change vs veh, N4BP2L2 / RFU, ARFIP1 / Fold change vs veh, ARFIP1 / RFU, FAM179B / Fold change vs veh, FAM179B / RFU, BCL10 / Fold change vs veh, BCL10 / RFU, UHRF1BP1L / Fold change vs veh, UHRF1BP1L / RFU, BET1 / Fold change vs veh, BET1 / RFU, CNOT2 / Fold change vs veh, CNOT2 / RFU, ZNF268 / Fold change vs veh, ZNF268 / Fold change vs veh, ZNF507 / RFU, DGCR2 / Fold change vs veh, DGCR2 / RFU, WDSUB1 / Fold change vs veh, WDSUB1 / Fold change vs veh, HSP90B1 /// MIR3652 / RFU, ADSS / Fold change vs veh, ADSS / RFU, GK / Fold change vs veh, GK / RFU, ZNF148 / Fold change vs veh, ZNF148 / RFU, TAF9 / Fold change vs veh, TAF9 / RFU, SLC1A5 / Fold change vs veh, SLC1A5 / RFU, SLMO2 / Fold change vs veh, SLMO2 / RFU, ABCC4 / Fold change vs veh, ABCC4 / RFU, LOC101060439 /// RAP1B / Fold change vs veh, LOC101060439 /// RAP1B / RFU, RFX7 / Fold change vs veh, RFX7 / RFU, GTPBP10 / Fold change vs veh, GTPBP10 / RFU, CNEP1R1 / Fold change vs veh, CNEP1R1 / RFU, BIVM-ERCC5 /// ERCC5 / Fold change vs veh, BIVM-ERCC5 /// ERCC5 / RFU, ILF3 / Fold change vs veh, ILF3 / RFU 11762660_at / Fold change /veh 11762660_at / RFU VCAN (11757783_s_at) / Fold change /veh VCAN (11757783_s_at) / RFU DDX43 (11728927_at) / Fold change /veh DDX43 (11728927_at) / RFU KRT8 (11758188_x_at) / Fold change /veh KRT8 (11758188_x_at) / RFU NKD1 (11759106_at) / Fold change /veh NKD1 (11759106_at) / RFU SRD5A1 (11742802_a_at) / Fold change /veh SRD5A1 (11742802_a_at) / RFU TPSAB1 /// TPSB2 (11721975_s_at) / Fold change /veh TPSAB1 /// TPSB2 (11721975_s_at) / RFU GSTM3 (11746129_a_at) / Fold change /veh GSTM3 (11746129_a_at) / RFU IL23R (11737362_x_at) / Fold change /veh IL23R (11737362_x_at) / RFU TMEM51 (11727254_a_at) / Fold change /veh TMEM51 (11727254_a_at) / RFU PIWIL2 (11732686_x_at) / Fold change /veh PIWIL2 (11732686_x_at) / RFU ORM1 (11744905_x_at) / Fold change /veh ORM1 (11744905_x_at) / RFU CCDC152 (11743942_at) / Fold change /veh CCDC152 (11743942_at) / RFU ECM1 (11717891_a_at) / Fold change /veh ECM1 (11717891_a_at) / RFU IL23R (11748794_a_at) / Fold change /veh IL23R (11748794_a_at) / RFU TNFAIP8L3 (11732012_x_at) / Fold change /veh TNFAIP8L3 (11732012_x_at) / RFU MBOAT4 (11741988_at) / Fold change /veh MBOAT4 (11741988_at) / RFU 11764193_at / Fold change /veh 11764193_at / RFU TMEM53 (11763286_at) / Fold change /veh TMEM53 (11763286_at) / RFU MAGEB2 (11727129_at) / Fold change /veh MAGEB2 (11727129_at) / RFU TMEM200A (11744735_a_at) / Fold change /veh TMEM200A (11744735_a_at) / RFU CCDC152 (11751479_a_at) / Fold change /veh CCDC152 (11751479_a_at) / RFU FAM211A (11726209_a_at) / Fold change /veh FAM211A (11726209_a_at) / RFU RGS16 (11746705_a_at) / Fold change /veh RGS16 (11746705_a_at) / RFU VCAN (11755009_s_at) / Fold change /veh VCAN (11755009_s_at) / RFU RHOB (11743442_s_at) / Fold change /veh RHOB (11743442_s_at) / RFU RGS16 (11720943_a_at) / Fold change /veh RGS16 (11720943_a_at) / RFU RGS16 (11720944_at) / Fold change /veh RGS16 (11720944_at) / RFU, VPS4B / Fold change vs veh, VPS4B / RFU, CREB1 / Fold change vs veh, CREB1 / RFU, DNAJC13 / Fold change vs veh, DNAJC13 / RFU, GNAQ / Fold change vs veh, GNAQ / RFU, CDK5R1 / Fold change vs veh, CDK5R1 / RFU, ZRANB3 / Fold change vs veh, ZRANB3 / RFU, CUL4A / Fold change vs veh, CUL4A / RFU, CCNY / Fold change vs veh, CCNY / RFU, UFL1 / Fold change vs veh, UFL1 / RFU, COG3 / Fold change vs veh, COG3 / RFU, DIAPH2 / Fold change vs veh, DIAPH2 / RFU, SKA2 / Fold change vs veh, SKA2 / RFU, AFF3 / Fold change vs veh, AFF3 / RFU, LMF1 / Fold change vs veh, LMF1 / RFU, IPO11 / Fold change vs veh, IPO11 / RFU, DFFB / Fold change vs veh, DFFB / RFU, FOXP1 / Fold change vs veh, FOXP1 / RFU, CARD8 / Fold change vs veh, CARD8 / RFU, STRN3 / Fold change vs veh, STRN3 / RFU, ADK / Fold change vs veh, ADK / RFU, RASSF2 / Fold change vs veh, RASSF2 / RFU, WIPF1 / Fold change vs veh, WIPF1 / RFU, LARP1B / Fold change vs veh, LARP1B / RFU, RASA1 / Fold change vs veh, RASA1 / RFU, RB1 / Fold change vs veh, RB1 / RFU, PPFIA1 / Fold change vs veh, PPFIA1 / RFU, MAT2A / Fold change vs veh, MAT2A / RFU, CCT5 / Fold change vs veh, CCT5 / RFU, WDR92 / Fold change vs veh, WDR92 / RFU, CUX1 / Fold change vs veh, CUX1 / RFU, TTC7A / Fold change vs veh, TTC7A / RFU, TMEM135 / Fold change vs veh, TMEM135 / RFU, DEPTOR / Fold change vs veh, DEPTOR / RFU, CPM / Fold change vs veh, CPM / RFU, DNAJB6 / Fold change vs veh, DNAJB6 / RFU, CACNA2D3 / Fold change vs veh, CACNA2D3 / RFU, DTX4 / Fold change vs veh, DTX4 / RFU, TFCP2 / Fold change vs veh, TFCP2 / RFU, GMCL1 /// GMCL1P1 / Fold change vs veh, GMCL1 /// GMCL1P1 / RFU, AEBP2 / Fold change vs veh, AEBP2 / RFU, SNHG1 /// SNORD22 /// SNORD25 /// SNORD26 /// SNORD27 /// SNORD28 /// SNORD29 /// SNORD31 / Fold change vs veh, SNHG1 /// SNORD22 /// SNORD25 /// SNORD26 /// SNORD27 /// SNORD28 /// SNORD29 /// SNORD31 / Fold change (Aza/veh), C12orf56 (ProbeSet 11735607_a_at) / Fold change (ACY-1035/veh), C12orf56 (ProbeSet 11735607_a_at) / Fold change (Aza/veh), FGFR1OP (ProbeSet 11751329_s_at) / Fold change (ACY-1035/veh), FGFR1OP (ProbeSet 11751329_s_at) / Fold change (Aza/veh), VPS36 (ProbeSet 11739960_a_at) / Fold change (ACY-1035/veh), VPS36 (ProbeSet 11739960_a_at) / RFU SYPL1 (11715823_x_at) / Fold change /veh SYPL1 (11715823_x_at) / RFU IGFBP7 (11715501_s_at) / Fold change /veh IGFBP7 (11715501_s_at) / RFU REEP3 (11722064_at) / Fold change /veh REEP3 (11722064_at) / RFU IGLL1 (11728026_x_at) / Fold change /veh IGLL1 (11728026_x_at): dose or concentration left out as unconfirmed
Conditions: ProbeSet 11725787_a_at; LIST B

Nc1ncn([C@@H]2O[C@H](CO)[C@@H](O)[C@H]2O)c(=O)n1 [azacitidine]
RFU, TMA16: 152.00 RFU
